Target: T1, Glycogen phosphorylase, muscle form (Oryctolagus cuniculus, UniProt P00489)
T1 sequence (P00489 whole entry): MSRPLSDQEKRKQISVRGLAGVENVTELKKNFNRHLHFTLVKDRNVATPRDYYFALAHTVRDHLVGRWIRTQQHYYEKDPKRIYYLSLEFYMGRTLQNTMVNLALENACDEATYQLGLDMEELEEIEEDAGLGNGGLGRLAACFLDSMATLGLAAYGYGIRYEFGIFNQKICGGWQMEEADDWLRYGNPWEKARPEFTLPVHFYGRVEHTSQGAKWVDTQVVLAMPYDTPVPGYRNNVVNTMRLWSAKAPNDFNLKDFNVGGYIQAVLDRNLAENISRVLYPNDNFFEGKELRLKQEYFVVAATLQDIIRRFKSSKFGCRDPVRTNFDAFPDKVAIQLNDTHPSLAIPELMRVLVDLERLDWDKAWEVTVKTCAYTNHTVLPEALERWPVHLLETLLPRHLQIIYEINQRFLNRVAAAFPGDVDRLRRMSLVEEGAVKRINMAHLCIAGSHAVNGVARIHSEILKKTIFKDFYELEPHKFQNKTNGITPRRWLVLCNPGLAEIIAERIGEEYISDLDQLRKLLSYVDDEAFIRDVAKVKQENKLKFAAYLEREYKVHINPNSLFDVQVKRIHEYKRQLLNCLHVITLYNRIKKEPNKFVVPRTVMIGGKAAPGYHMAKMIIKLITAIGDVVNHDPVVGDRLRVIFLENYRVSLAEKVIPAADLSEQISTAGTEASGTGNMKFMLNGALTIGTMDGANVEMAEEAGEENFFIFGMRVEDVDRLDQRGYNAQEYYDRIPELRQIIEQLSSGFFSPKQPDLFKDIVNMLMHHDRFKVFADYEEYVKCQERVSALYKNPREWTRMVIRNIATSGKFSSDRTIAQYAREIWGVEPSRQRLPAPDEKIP
Assay: Inhibition of rabbit muscle glycogen phosphorylase A assessed as release of phosphate from glucose-1-phosphate after 25 mins by microplate reader based method

Compound	IC50 [µM]
CC1(C)CC[C@]2(C(=O)O)CC[C@]3(C)C(=CC[C@@H]4[C@@]5(C)C[C@@H](O)CC(C)(C)[C@@H]5CC[C@]43C)[C@@H]2C1	16.1
CC1(C)CC[C@]2(C(=O)O)CC[C@]3(C)C(=CC[C@@H]4[C@@]5(C)C[C@H](O)CC(C)(C)[C@@H]5CC[C@]43C)[C@@H]2C1	22.7
C[C@H]1[C@H](C)CC[C@]2(C(=O)OCCNC3CCCCC3)CC[C@]3(C)C(=CC[C@@H]4[C@@]5(C)CC[C@H](O)C(C)(C)[C@@H]5CC[C@]43C)[C@H]12	25.6
CC(=O)O[C@H]1CC[C@]2(C)[C@H]3CC=C4[C@@H]5[C@@H](C)[C@H](C)CC[C@]5(C(=O)OC[C@H](O)[C@H]5OC(=O)C(O)=C5O)CC[C@@]4(C)[C@]3(C)CC[C@H]2C1(C)C	1.53
CC1(C)CC[C@]2(C(=O)O)CC[C@]3(C)C(=CC[C@@H]4[C@@]5(C)CC[C@H](OC(=O)Cn6cc(COC(=O)Cc7ccccc7)nn6)C(C)(C)[C@@H]5CC[C@]43C)[C@@H]2C1	30.9
COCc1cn(CCCCCCn2cc(CO[C@H]3CC[C@]4(C)[C@H]5CC=C6[C@@H]7CC(C)(C)CC[C@]7(C(=O)O)CC[C@@]6(C)[C@]5(C)CC[C@H]4C3(C)C)nn2)nn1	2.59
C[C@H]1[C@H](C)CC[C@]2(C(=O)O)CC[C@]3(C)C(=CC[C@@H]4[C@@]5(C)C[C@H](O)CC(C)(C)[C@@H]5CC[C@]43C)[C@H]12	20.6
CC1(C)CC[C@]2(C(=O)OCc3ccccc3)CC[C@]3(C)C(=CC[C@@H]4[C@@]5(C)C[C@H](O)[C@@H](O)C(C)(C)[C@@H]5CC[C@]43C)[C@@H]2C1	6.59
CC(=O)O[C@@H]1O[C@H](OC(=O)[C@]23CCC(C)(C)C[C@H]2C2=CC[C@@H]4[C@@]5(C)C[C@@H](O)[C@H](O)C(C)(C)[C@@H]5CC[C@@]4(C)[C@]2(C)CC3)[C@@H](OC(C)=O)[C@H](OC(C)=O)[C@H]1OC(C)=O	18.6
CCC(=O)O[C@@H]1C[C@]2(C)[C@H]3CC=C4[C@@H]5CC(C)(C)CC[C@]5(C(=O)O)CC[C@@]4(C)[C@]3(C)CC[C@H]2C(C)(C)[C@H]1OC(=O)CC	10.5
CCCC(=O)O[C@@H]1C[C@]2(C)[C@H]3CC=C4[C@@H]5CC(C)(C)CC[C@]5(C(=O)O)CC[C@@]4(C)[C@]3(C)CC[C@H]2C(C)(C)[C@H]1OC(=O)CCC	25.2
C[C@H]1[C@H](C)CC[C@]2(C(=O)OCc3ccccc3)CC[C@]3(C)C(=CC[C@@H]4[C@@]5(C)C[C@H](O)[C@@H](O)C(C)(C)[C@@H]5CC[C@]43C)[C@H]12	1.25
COC(=O)[C@H](Cc1ccccc1)NC(=O)[C@]12CC[C@@H](C)[C@H](C)[C@H]1C1=CC[C@@H]3[C@@]4(C)C[C@@H](OC(C)=O)[C@H](OC(C)=O)C(C)(C)[C@@H]4CC[C@@]3(C)[C@]1(C)CC2	23.9
COC(=O)[C@H](Cc1ccc(O)cc1)NC(=O)[C@]12CC[C@@H](C)[C@H](C)[C@H]1C1=CC[C@@H]3[C@@]4(C)C[C@@H](OC(C)=O)[C@H](OC(C)=O)C(C)(C)[C@@H]4CC[C@@]3(C)[C@]1(C)CC2	11.2
CC1(C)CC[C@]2(C(=O)O)CC[C@]3(C)[C@H]([C@@H](O)C[C@@H]4[C@@]5(C)CC[C@H](O)C(C)(C)[C@@H]5CC[C@]43C)[C@@H]2C1	3.07
CC1(C)CC[C@]2(C(=O)OCc3ccccc3)CC[C@]3(C)[C@H]([C@@H](O)C[C@@H]4[C@@]5(C)CC[C@H](O)C(C)(C)[C@@H]5CC[C@]43C)[C@@H]2C1	6.54
CC1(C)CC[C@]2(C(=O)OCc3ccccc3)CC[C@]3(C)[C@H]([C@H](O)C[C@@H]4[C@@]5(C)CC[C@H](O)C(C)(C)[C@@H]5CC[C@]43C)[C@@H]2C1	5.35
CC1(C)CC[C@]2(C(=O)OCC(=O)O)CC[C@]3(C)C(=CC[C@@H]4[C@@]5(C)CC[C@H](O)C(C)(C)[C@@H]5CC[C@]43C)[C@@H]2C1	62.6

Compound	IC50 [µM]
CCOC(=O)CCCOC(=O)[C@]12CCC(C)(C)C[C@H]1C1=CC[C@@H]3[C@@]4(C)CC[C@H](O)C(C)(C)[C@@H]4CC[C@@]3(C)[C@]1(C)CC2	76.7
CNCCOC(=O)[C@]12CCC(C)(C)C[C@H]1C1=CC[C@@H]3[C@@]4(C)CC[C@H](O)C(C)(C)[C@@H]4CC[C@@]3(C)[C@]1(C)CC2	53.2
C[C@H]1[C@H](C)CC[C@]2(C(=O)OCC(=O)O)CC[C@]3(C)C(=CC[C@@H]4[C@@]5(C)CC[C@H](O)C(C)(C)[C@@H]5CC[C@]43C)[C@H]12	188
CCOC(=O)COC(=O)[C@]12CC[C@@H](C)[C@H](C)[C@H]1C1=CC[C@@H]3[C@@]4(C)CC[C@H](O)C(C)(C)[C@@H]4CC[C@@]3(C)[C@]1(C)CC2	4.1
CC1(C)CC[C@]2(C(=O)O)CC[C@]3(C)C(=CC[C@@H]4[C@@]5(C)CC[C@H](OC(=O)/C=C\c6ccc(Cl)cc6)C(C)(C)[C@@H]5CC[C@]43C)[C@@H]2C1	3.3
COc1ccc(/C=C\C(=O)O[C@H]2CC[C@]3(C)[C@H]4CC=C5[C@@H]6CC(C)(C)CC[C@]6(C(=O)O)CC[C@@]5(C)[C@]4(C)CC[C@H]3C2(C)C)cc1	16.9
CC1(C)CC[C@]2(C(=O)O)CC[C@]3(C)C(=CC[C@@H]4[C@@]5(C)CCC(=O)[C@@](C)(CO)[C@@H]5CC[C@]43C)[C@@H]2C1	53.5
CC1(C)CC[C@]2(C(=O)O)CC[C@]3(C)C(=CC[C@@H]4[C@@]5(C)CC/C(=N\O)C(C)(C)[C@@H]5CC[C@]43C)[C@@H]2C1	225
CC1(C)CC[C@]2(C(=O)OCc3ccccc3)CC[C@]3(C)C(=CC[C@@H]4[C@@]5(C)CC/C(=N\O)C(C)(C)[C@@H]5CC[C@]43C)[C@@H]2C1	20.8
CC(=O)O[C@@H]1C[C@]2(C)[C@H]3CC=C4[C@@H]5CC(C)(C)CC[C@]5(C(=O)O)CC[C@@]4(C)[C@]3(C)CC[C@H]2C(C)(C)[C@H]1OC(C)=O	13.3
C[C@H]1[C@H](C)CC[C@]2(C(=O)O)CC[C@]3(C)C(=CC[C@@H]4[C@@]5(C)CC[C@H](OC(=O)CCC(=O)O)C(C)(C)[C@@H]5CC[C@]43C)[C@H]12	27.6
CC1(C)CC[C@]2(C(=O)O)CC[C@]3(C)C(=CC[C@@H]4[C@@]5(C)Cc6nc7ccccc7nc6C(C)(C)[C@@H]5CC[C@]43C)[C@@H]2C1	14
CC1(C)CC[C@]2(C(=O)O)CC[C@]3(C)C(=CC[C@@H]4[C@@]5(C)Cc6nccnc6C(C)(C)[C@@H]5CC[C@]43C)[C@@H]2C1	25.1
CC1(C)CC[C@]2(C(=O)O)CC[C@]3(C)C(=CC[C@@H]4[C@@]5(C)C[C@@H](O)[C@H](O)[C@@](C)(CO)[C@@H]5CC[C@]43C)[C@@H]2C1 [ARJUNOLIC ACID]	103
CC1(C)CC[C@]2(C(=O)OCc3ccccc3)CC[C@]3(C)C(=CC[C@@H]4[C@@]5(C)C[C@H](O)[C@H](O)C(C)(C)[C@@H]5CC[C@]43C)[C@@H]2C1 [BENZYL AUGUSTATE]	21.7
COC(=O)[C@]12CC[C@@H](C)[C@H](C)[C@H]1C1=CC[C@@H]3[C@@]4(C)C[C@@H](O)[C@H](O)C(C)(C)[C@@H]4CC[C@@]3(C)[C@]1(C)CC2 [COROSOLIC ACID METHYL ESTER]	33.7
CC(=O)O[C@H]1CC[C@]2(C)[C@H]3CC=C4[C@@H]5[C@@H](C)[C@H](C)CC[C@]5(C(=O)O)CC[C@@]4(C)[C@]3(C)CC[C@H]2C1(C)C [O-ACETYLURSOLIC ACID]	131
CC1(C)CC[C@]2(C(=O)O)CC[C@]3(C)C(=CC[C@@H]4[C@@]5(C)CC[C@H](OC(=O)CCC(=O)O)C(C)(C)[C@@H]5CC[C@]43C)[C@@H]2C1 [OLEANOLIC ACID 3-O-SUCCINATE]	34.3

From ChEMBL document CHEMBL1795338, “Identification of pentacyclic triterpenes derivatives as potent inhibitors against glycogen phosphorylase based on 3D-QSAR studies” (Eur J Med Chem, 2011)
